Reference: patent US12465618B2, “Compositions and methods for degenerative disc regeneration” (University Health Network, priority 2015, dated 2025)

Legend:
Type in all cases: cell-based
[1] = system: human degenerative disc NP cells; test: qRT-PCR with gene specific primers; conditions: human degenerated disc NP cells, real time PCR
Protocol: Total RNA from healthy and treated (IL-1β alone or in combination with TNFα) rat NP cells, were isolated using RNAeasy extraction kit (Cat #74134, Qiagen) and quantified using a Nanodrop spectrophotometer. Total RNA (˜400 ng) was reverse-transcribed using RT^2 First Strand Kit (Cat #330401, Qiagen) following the manufacturer's instructions for preparing cDNA. To evaluate the effect of IL-1β alone or in combination with TNFα on extra-cellular matrix (ECM) genes in rat NP cells, the RT^2 Profiler™ PCR Array Rat Extracellular Matrix & Adhesion Molecules (PARN-013Z, Qiagen) was used and compared with no treatment controls (NTC) in 3 independent experiments using real time PCR performed on ABI 7900HT 384-well Fast block machine. Data analysis including calculation of ΔΔCt values, fold changes and p-values was carried out using software available online (https://www.qiagen.com/ca). Total RNA was isolated from human degenerative disc NP cells (H1/H2) treated with CTGF, TGFβ1, CTGF+TGFβ1 to evaluate their effect on collagen 2, HAPLN1, versican and thrombospondin 1 using gene specific primers. Similarly, RNA was isolated from human NP cells were treated with […] alone or in combination TNFα in presence of CTGF and TGFβ1 to determine their effect on Cox2 and MMP-13 expression using qRT-PCR.

[2] = system: human degenerative disc NP cells; test: Western blotting of human degenerative disc NP cells; conditions: within 24 hrs
Protocol: (§1) After euthanasia, healthy rat lumbar/caudal spine IVDs, injured tail discs and bovine caudal IVD NPs were removed aseptically and the nucleus pulposus (NP) was removed separately and enzymatically digested according to methods established by the present inventors^16. Similarly, human degenerative disc NPs were enzymatically digested using Pronase (0.4%, 1 hr at 37° C.) followed by Collagenase II treatment (0.015%, O/N, 37° C.). The following day, the cells were filtered with a 70p cell strainer and cultured within a hypoxic incubator (NuAire, MN, USA) in 3.5% O2, 5% CO2, in Advanced Dulbecco's modified Eagle's medium (ADMEM) supplemented with 8% fetal bovine serum (FBS) and penicillin and streptomycin (100 U/mL). For treatments, the cells were either cultured in serum free ADMEM (no treatment controls) or treated with interleukin-1β (IL-1β, 10 ng/mL), tumor necrosis factor-alpha (TNFα, 50 ng/mL), connective tissue growth factor (CTGF, 10-100 ng/mL), Wnt-inducible soluble protein 2 (WISP2, 10-100 ng/mL) or transforming growth factor beta 1 (TGFβ1, 5-20 ng/mL) for various time points under hypoxic conditions.
(§2) Equal amounts of whole cell or tissue lysates prepared using RIPA lysis buffer were subjected to Western blotting as described earlier^18,19. Total lysates (30 μg) were resolved on 10% sodium dodecyl sulphate-polyacrylamide gels (SDS-PAGE) under reducing conditions and then proteins were electro-transferred onto polyvinyledendifluoride (PVDF) membranes (BioRad, CA). After blocking with 5% non-fat powdered milk in Tris-buffered saline (TBS, 0.1 M, pH=7.4), blots were incubated with rabbit or goat polyclonal/mouse monoclonal primary antibodies at 4° C. overnight. […] Blots were washed three times with TTBS for 15 minutes and protein bands were detected by the enhanced chemiluminescence method (BioRad, CA) on Kodak Hyperfilm.

[3] = system: rat-tail disc NP cells (healthy/injured); test: MTT cell viability assay; conditions: CTGF 100 ng/ml, TGFβ1 10 ng/ml, 48 hrs-72 hrs
Protocol: (§3) Nucleus pulposus cells (rat, bovine and human) were plated in 96-well flat bottom plates in order to evaluate the effect of treatment with growth factors in cell viability and proliferation assays. Rat NP cells were treated with CTGF, WISP-2 and TGFβ1 in a dose (1 ng/mL-100 ng/mL) and time dependent manner (24 hrs-96 hrs) to determine the optimum dose and time for the assessment of these growth factors on viability. Cell viability was determined using 3-(4,5-dimethylthiazol-2-yl)-2,5-diphenyltetrazolium bromide (MTT, Sigma-Aldrich, USA) as previously described^44. A BrdU-ELISA (colorimetric) assay (Cat #ab126556, Abcam) was used for determining the effect of treatment with CTGF or TGFβ1 on human and rat NP cells (healthy/injured) following the manufacturer's instructions. Briefly, NP cells were treated with CTGF or TGFβ1 alone or in combination for 48 hrs following addition of BrdU reagent O/N in each well. Incorporated BrdU in DNA of proliferating cells was determined using anti-BrdU antibody and quantified by ELISA as per the manufacturer's instructions.

[4] = system: bovine degenerative disc NP cells; test: MTT cell viability assay; conditions: CTGF 100 ng/ml, TGFβ1 10 ng/ml, 48 hrs-72 hrs
Protocol: as §3

rat NP cells = test: Western blotting of rat NP cells treated with IL-1β/TNFα with or without inhibitors or growth factors; conditions: rat-tail NP cells treated with IL-1β and TNFα, Western blot, FIG. 5g-5h
Protocol: as §1, §2

## TGFβ1: Human recombinant transforming growth factor beta 1, Peprotech cat #100-21, identified in NCCM
[1]
  mRNA levels of collagen 2, HAPLN1, versican and thrombospondin1 (THBS1): Increased mRNA levels
[2]
  collagen 2 expression (Western blotting): increase
[3]
  cell viability (MTT): increased the viability
[4]
  cell viability (MTT): increased the viability
Rat NP cells
  expression of MMP-3, MMP-13 and Cox2 proteins in presence of growth factor: reduced expression
